Laboratory results from patent US20090209473A1, “Componds and methods for pormoting angiogenesis” (priority 2003, published 2009).
Values joined by “and” are separate entries in the source; they are usually repeats but may differ in a detail not shown here. Identical values can stand only once.

Key:
[1] = test system: Human umbilical vein endothelial cells (HUVEC); test: HUVEC cluster sprouting in collagen gel (Example 1 in vitro model); assay type: cell-based; conditions: for sprout length versus cells receiving VEGF only: co-administered with VEGF
Procedure: Human umbilical vein endothelial cells (HUVEC) were used to evaluate various gamma-secretase inhibitors for potential angiogenesis effect. A 72 cm2 flask of confluent cells (1.5-2 E6 cells) was trypsinized with 3.5 ml trypsin/EDTA. After a maximum of 3 minutes, the cells were rinsed with 1.5 ml serum then centrifuged at 200 g for 3 minutes. After centrifugation, the supernatant was discarded and the cells resuspended in medium (endothelial cell growth medium (Promocell) with additional 10% serum). Cell concentration was diluted to 2.0×10^4 cells/ml in medium supplemented with 20% methocel stock solution. The cells were clustered in hanging drops of 20 μl (400 cells) overnight.
To imbed the cells in gel, the drops were first rinsed with PBS. The clusters were centrifuged at 200 g for 3 minutes and the supernatant removed. Centrifuge tubes were then briefly drawn over a rough surface to loosen the pellet. The clusters were resuspended in ice cold methocel stock solution supplemented with 20% protein. An equal amount of collagen I-gel at 3 mg/ml (Becton-Dickinson) was carefully mixed with the cells. Immediately thereafter, 1000 μl of the gel/cell cluster mixture was added to each well of a preheated (37° C.) 24-well plate. The plate was incubated for 30 minutes at 37° C., 5% CO2 and 100% humidity. One hundred μl of medium, along with the desired test substance and optionally 2.5 μl of 10 μg/ml VEGF were added to each well to a final concentration in the top medium of 250 ng/ml and 25 ng/ml in the well. Negative control cells received medium only and positive control cells received medium and VEGF only. The wells without gel were given 1 ml PBS.
To quantify the results, ten clusters from each […] were photographed. The length of the five longest sprouts on each cluster was measured, and the sum of the sprout length from each cluster calculated. Average values from ten clusters were obtained.
The above-mentioned methocel stock solution was prepared by autoclaving 6 grams of pure methyl cellulose powder (Sigma) in a 500 ml flask containing a magnetic stirrer. After autoclaving the methyl cellulose was dissolved in 250 ml of basal medium preheated to 60° C. for 20 minutes. An additional 250 ml of basal medium at room temperature was added to a final volume of 500 ml and the solution stirred overnight. Finally, the stock solution was aliquotted and cleared through centrifugation at 5000g for 2 hours at room temperature. The 90-95% of the material which became the clear, highly viscous supernatant was used.

HUVEC spheroids = test: HUVEC spheroid sprouting, cumulative sprout length (Example 5 modified in vitro model); assay type: cell-based, Human; conditions: for sprout length versus control across concentrations: 100, 20, 4, 0.8, 0.16, 0.032 μM
Procedure: Similar to the approach described in Example 1, two further compounds were evaluated for their ability to initiate or increase angiogenesis. HUVEC spheroids were prepared by pipetting 400 HUVE cells (PromoCell, Heidelberg, Germany, cultured according to supplier's instructions) into each well of non-adhesive 96-well plates and allowed to aggregate overnight. After harvesting, 48 spheroids were seeded in 900 μl of methocel-collagen solution and pipetted into individual wells in a 24-well plate, allowing for collagen gel polymerization. After 30 minutes, freshly-prepared test compounds were added (prepared by dissolving lyophilized compound at a concentration of 10 mM in DMSO, specific concentrations administered described below) by pipetting 100 μl of a 10-fold concentrated working dilution on top of the gel. At the end of the incubation period the dishes were fixed for 24 hours at 37° C. with paraformaldehyde.
Sprouting intensity of endothelial cells was quantitated by an image analysis system determining the cumulative sprout length per spheroid using an Olympus IX50 inverted microscope and Olympus image analysis software. The mean of the cumulative sprout length of 10 randomly selected spheroids was analyzed as an individual data point.

new born mice = test: Physiological retinal angiogenesis in new born (non-OIR) mice; assay type: in vivo; conditions: administered postnatal days 3 and 4, retinas analysed day 5
Procedure: To investigate if the increased retinal vascularization after DAPT treatment was restricted to the OIR, the effect of DAPT on physiological angiogenesis in new born mice was investigated. DAPT was administered to new born mice on postnatal days 3 and 4 and retinas were analyzed at day 5 as described above. […] This can be observed by comparing the degree of vascularization in the retina of control animals, FIGS. 20 and 21, with that of treated animals as shown in FIGS. 22 and 23. Except for the increased vascular density, the vascular architecture was normal. The growth of the vascular network towards the periphery and the arterio-venous specification were intact for DAPT-treated mice as with controls.

[2] = test system: Oxygen-induced retinopathy mice; test: Oxygen-induced retinopathy mouse model, retinal whole mount analysis; assay type: in vivo
Description: Oxygen-induced retinopathy mice were used to determine the extent and effect of gamma-secretase inhibitors on the angiogenic process. Mice with oxygen induced retinopathy (OIR mice) are a commonly-used model and are described in the literature (see, Smith et al, supra). They are at times referred to as retinopathy of prematurity models or ROP mice. The model takes advantage of the fact that full term mice pups are born with an immature retinal vascularization which matures during the first three weeks of postnatal growth. Briefly, neonatal mice (NMRI/C57b1) from the same litter were placed, with their nursing mother, in a hyperoxic environment (75% oxygen) at age day seven. After exposure to the hyperoxic environment for 5 days, the 12-day old pups were removed to normal air. In the treated mice, DAPT was administered once daily during age days 12-16. Control pups were treated the same way but injected with the vehicle. At post natal day 17 the mice were euthanized and the retinas were prepared for whole mount immunohistochemistry. Except for the mode of injection, the stock solution of DAPT was prepared and administered essentially as described in Lanz et al., (2003, J. Pharmacol. Exp. Ther. 305:864-71). In short, 5 mg DAPT was dissolved in 25 μl 99.5% EtOH and then dissolved in 475 μl Corn oil (Sigma, Catalog No. C8267). If precipitate formed, the solution was heated to 70° C. for 2-3 minutes. The pups were injected subcutaneously once a day according to: V(μl)=weight (g)*10, that is, 100 mg DAPT/kg body weight. Control pups were injected subcutaneously once a day with the same amount of vehicle (i.e. 5% EtOH in corn oil). Eyes were fixed in 4% PFA in PBS at 4° C. overnight and washed in PBS. […] This can be quantified in the superficial capillary plexus by counting the number of capillary enclosed areas in the peripheral part of the retina.

[3] = 100 μM test compound co-administered with 25 ng/ml VEGF-A
[4] = 100 μM test compound, no VEGF-A

Molecule: COC(=O)[C@@H](NC(=O)[C@H](CC(C)C)NC(=O)N(Cc1ccccc1)C[C@@H](O)[C@H](Cc1ccccc1)NC(=O)OC(C)(C)C)C(C)C [WPE-III-31C]
- average sprout length ([1]; 0.16 μM test compound co-administered with VEGF): 410 μm
- average sprout length ([1]; 0.16 μM test compound, no VEGF): 230 μm
- sprout length at increasing concentrations ([1]; WPE-III-31C 0.16, 0.8 and 4 μM, no VEGF): only increased with increasing concentrations
- sprout length versus cells receiving VEGF only [1]: significantly longer sprout lengths than the control cells

Molecule: VEGF
- cumulative length of all sprouts (CSL) (HUVEC spheroids; VEGF-A only, 25 ng/ml): 1794 μm and 1860+/−100 μm
- average sprout length ([1]; VEGF only (positive control), 25 ng/ml in the well): 460 μm and 370 μm and 320 μm

Molecule: C[C@H](NC(=O)C(O)c1cc(F)cc(F)c1)C(=O)N[C@H]1N=C(c2ccccc2)c2ccccc2N(C)C1=O (stereo partly drawn) [Compound X, S-3-[N′-(3,5-difluorophenyl-alpha-hydroxyacetyl)-L-alanilyl]amino-2,3-dihydro-1-methyl-5-phenyl-1H-1,4-benzodiazepin-2-one]
- sprouting versus VEGF-A only (HUVEC spheroids; 4 μM test compound co-administered with VEGF-A): increase the sprouting significantly
- cumulative length of all sprouts (CSL) (HUVEC spheroids; [3]): 4289 μm
- cumulative length of all sprouts (CSL) (HUVEC spheroids; [4]): 1630 μm
- sprout length versus control across concentrations (HUVEC spheroids; no VEGF-A): Only the two lowest concentrations tested failed to produce longer sprouts that control

Molecule: C[C@H](NC(=O)Cc1cc(F)cc(F)c1)C(=O)N[C@H](C(=O)OC(C)(C)C)c1ccccc1 [DAPT]
- peripheral retinal vascular density (new born mice): increased peripheral vascular density
- vascular architecture of retina (new born mice): normal
- avascular zones in the central retina ([2]; 100 mg/kg s.c. once daily days 12-16, analysed day 17): almost completely lack the vascular-free zones
- number of capillary enclosed areas in the peripheral retina ([2]; 100 mg/kg s.c. once daily days 12-16, day 17, versus vehicle control): near doubling
- vascular (capillary) tufts in retina ([2]; 100 mg/kg s.c. once daily days 12-16, versus control): significant reduction in capillary tufts
- average sprout length ([1]; 0.08 μM test compound, no VEGF, +/- SEM): 330+/−28 μm
- average sprout length ([1]; 0.4 μm DAPT co-administered with VEGF): 550+/−32 μm
- sprout length at increasing levels ([1]; DAPT 0.4, 2, 10 and 50, no VEGF, versus 0.08 μM): further increases in sprout length
- sprout length versus cells receiving VEGF only [1]: increases in sprout length over those with VEGF alone

Molecule: CC1(C)[C@@H]2CC[C@@](C)(C2)[C@@H]1NS(=O)(=O)c1ccc(F)cc1 [1-(S)-endo-N-(1,3,3)-Trimethylbicyclo[2.2.1]hept-2-yl)-4-fluorophenyl Sulfonamide]
- average sprout length ([1]; 0.16 μM test compound, no VEGF): 280 μm
- increase in length versus control cells ([1]; 0.16 μM, no VEGF): 100%
- average sprout length ([1]; 20 μM test compound co-administered with VEGF): 480 μm

Molecule: CC(C)[C@H](O)C(=O)N[C@@H](C)C(=O)N[C@@H]1C(=O)N(C)CCc2ccccc21 [LY-450, 139, (N)—[(S)-2-hydroxy-3-methyl-butyryl]-1-(L-alaninyl)-(S)-1-amino-3-methyl-4,5,6,7-tetrahydro-2H-3-benzazepin-2-one]
- cumulative length of all sprouts (CSL) (HUVEC spheroids; [3]): 3521 μm
- cumulative length of all sprouts (CSL) (HUVEC spheroids; [4]): 1730 μm
- sprout length versus control across concentrations (HUVEC spheroids; no VEGF-A): lower concentrations were not found to be effective
- sprout length versus VEGF-A only across concentrations (HUVEC spheroids; 100 to 0.032 μM co-administered with 25 ng/ml VEGF-A): Only the lowest concentration tested failed to produce longer sprouts that VEGF-A
